From patent US6489307B1, “Antisense compositions targeted to β1-adrenoceptor-specific mRNA and methods of use” (University of Florida, priority 1998, dated 2002)
Where “and” joins values, the source holds several entries; their conditions need not be identical. Equal entries are not always repeated. Entries after “also recorded” stand apart in the source; their conditions may differ.

What was measured:
[1] = tested on: SHRs; test: Telemetric monitoring of conscious SHRs during dobutamine infusion; type: in vivo, rat (SHR)
Method: Two days after catherization of the jugular vein, control values were taken and 1 mg/kg β1-AS-ODN was injected. 48 hr later, rats were tested for the effect of β1-AS-ODN. The rats were allowed to recover until all the cardiovascular parameters returned to control values. […] For β1-stimulation, SHRs were infused with dobutamine (β1-selective agonist) through a jugular vein catheter at 5, 10, 20, and 40 μg·kg^−1·min.^−1. Each dose was given for 5 min. continuously and at 1-hr intervals until all the cardiovascular parameters returned to baseline values so as to avoid the effect of tachyphylaxis. BP and HR were sampled every 1 min. dP/dtmax was calculated from the slope of the rising pulse-pressure curve and determined every 1 min. The difference between values at each dose and baseline was denoted as Δ.
Two days after catheterization of jugular vein, control values were taken and 1 mg/kg β1-AS-ODN was injected. Forty-eight hr later, rats were tested for the effect of β1-AS-ODN. The rats were allowed to recover until all the cardiovascular parameters returned to control values. […] For β1-stimulation, SHR were infused with dobutamine (β1-selective agonist) through jugular vein catheter at 5, 10, 20, 40 μg/kg/min. Each dose was given for 5 min continuously and at 1-hr intervals until all cardiovascular parameters returned to baseline so as to avoid the effect of tachyphylaxis. BP and HR were sampled every min. dP/dtmax was calculated from the slope of the rising pulse pressure curve and determined every min. The difference between values at each dose and baseline was denoted as Δ.

[2] = tested on: SHRs; type: in vivo, rat (SHR)
Method: Each rat cage was placed on a receiver (RLA 1020, Data Sciences, St. Paul, Minn.) for measurement of cardiovascular parameters. Data were collected with a computer-based data acquisition program (Dataquest Lab-PRO3.0; Data Sciences). BP and HR were measured every 10 min. and averaged every 1 to 24 hrs. Before treatment, SHRs were monitored for a week to get a stable baseline.
Each rat cage was placed on a receiver (RLA1020, Data Sciences) for measurement of cardiovascular parameters. Data were collected with a computer-based data acquisition program (Dataquest LabPRO3.0; Data Sciences). BP and HR were measured every 10 min and averaged every 1 to 24 hr. Before treatment, SHR were monitored for a week to get a stable baseline.

[3] = tested on: β1-AR mRNA; test: RT-PCR of β1-AR mRNA in myocardium; type: in vivo, Sprague-Dawley rats; conditions: adjusted for GAPDH
Method: Total RNA was isolated from rat myocardium with the single step acid-guanidinum thiocyanate-phenol-chloroform method and quantified (Chomcznski and Sacchi, 1987). One μg of total RNA was reverse transcribed with oligo-dT (Promega) and M-MLV reverse transcriptase (Promega) at 37° C. for one hr. 1.5 μl of RT material was amplified with Taq DNA polymerase (Promega) using a primer pair specific to β1-AR:
PCR™ product was 432 base pairs. For PCR, 35 cycles were used at 95° C. for one minute, 60° C. for one minute, and 72° C. for one min. The RT-PCR™ amplified samples were visualized on 1.8% agarose gels using ethidium bromide. A primer pair of rat GAPDH was used as control:
For PCR™, 35 cycles were used at 95° C. for one min, 60° C. for one min, 72° C. for one min. PCR™ product was 504 base pairs. Relative intensity of bands of interest were analyzed by NSF-300G Scanner (Microtek) (Yang et al., 1998; Li et al., 1999).

[4] = tested on: β1-AR protein; test: Western blot of β1-AR protein in myocardium; type: in vivo, Sprague-Dawley rats; conditions: Western analysis
Method: Myocardial tissues were homogenized and lysed in boiling lysis buffer (1% SDS, 0.1% Triton X-100®, and 10 mmol/L Tris-HCl, pH 7.4) and centrifuged at 10,000 RPM for 30 minutes at 4° C. The lysate protein from myocardial tissues (20 μg/lane) was separated by 8% SDS-PAGE using a Bio-Rad Mini-Protean cell, transferred to nitrocellulose membrane (Amersham). After incubation in blocking solution (4% non-fat milk, Sigma), membranes were incubated with 1:1000 dilation primary antibody (polycolonal antibody to β1-AR, Santa Cruz Biotechnology) for overnight at 4° C. Membranes were washed and incubated with 1:2000 dilution second antibody (Amersham) for one hr. The membranes were detected with the ECL system, as described previously (Yang et al, 1998; Li et al., 1999).

[5] = tested on: isolated rat heart; test: Isolated perfused heart model, myocardial ischemia-reperfusion; type: in vivo, Sprague-Dawley rats; conditions: 2 mg/kg 6 hr before
Method: Male Sprague-Dawley rats weighing 200-250 g were injected intravenously with either AS-ODNs (n=7) or IN-ODNs (n=7) at a dose of 200 μg/rat 4 days before excising the hearts. DOTAP/DOPE liposomes (700 μg/rat) were given along with ODNs.
The hearts were excised rapidly and placed in ice-cold Kreb-Henseleit buffer (mmol/L: NaCl 118, KCl 4.7, KH2PO4 1.2, MgSO4 1.2, CaCl2 1.25, NaHCO3 25, and glucose 11, pH 7.4). Within one min, the hearts were transferred to an isolated perfusion apparatus and perfused via the aorta with oxygen-saturated (95% O2+5% CO2) Kreb-Henseleit buffer kept at 37° C. with the use of a MasterFlex pump (model 7015-21, Cole-Palmer Instrument Co.) according to the modified Langendroff procedure (Yang et al., 1998; Neely and Rovetto, 1975). The heart was placed in a semi-closed circulating water-warmed (37° C.) air chamber, paced atrially with a Medtronic 5320 pacemaker at a rate of 300 bpm, and perfused at a constant flow (5.5-6.0 ml/per min). Coronary perfusion pressure (CPP) was measured via a catheter placed just proximal to the aorta and connected to a Gould Statham P23ID pressure transducer. A latex balloon filled with water and connected to a Gould Statham P23ID pressure transducer was inserted in the left ventricle through the left atrium to measure left ventricular end-diastolic pressure (LVEDP), left ventricular systolic pressure (LVSP), and developed left ventricular pressure (dLVP) (dLVP=LVSP−LVEDP). LVEDP during equilibration was set at 5 to 7 mmHg. All measurements were continuously recorded on a 4-channel record (Astro-Med).
Six hearts from saline-treated rats were continuously perfused with Kreb-Henseleit buffer for 80 min and served as sham control. Hearts from other rats, after 20 min of equilibration, were subjected to 30 min of ischemia followed by 30 min of reperfusion. After completion of the study, hearts were frozen in liquid-nitrogen for β1-AR analysis by binding assay, β1-AR protein analyses by Western blot, β1-AR mRNA analysis by reverse transcription-polymerase chain reaction (RT-PCR™), and measurement of MDA.
The protective effects of β1-AS-ODNs were tested in a rat model of myocardial ischemia-reperfusion. Five groups of SD rats were studied. Sham controls (n=6) were injected with saline and perfused continuously for 80 min without ischemia/reperfusion (I/R). In other groups, hearts were perfused for 20 min and subjected to global ischemia (30 min) followed by reperfusion (30 min). […] AS-ODN+I/R (n=7) or INV-ODN+I/R (n=7) were injected iv. with 1 mg/kg β1-AS-ODN or INV-ODN 4 days before the I/R study was performed.

[6] = tested on: MDA (lipid peroxidation); test: MDA levels in myocardium after ischemia-reperfusion; type: in vivo, Sprague-Dawley rats; conditions: pretreatment before ischemia-reperfusion; vs saline
Method: Malondialdehyde (MDA) levels in myocardium were measured in duplicate by a modification of the method of Ohkawa et al., (1979). Briefly, the ventricular tissues were homogenized. The assay mixture consisted of 0.1 ml of the tissue homogenate, 0.4 ml of 0.9% NaCl, 0.5 ml of 3% sodium dodecylsulfate, 3 ml of TBA (thiobarbituric acid reagent, containing equal parts of 0.8% aqueous thiobarbituric acid and acetic acid) and was heated for 75 min at 95° C. Thereafter, 1 ml cold 0.9% NaCl was added to the mixture, which was cooled and extracted with 5 ml n-butanol. After centrifugation at 3,000 rpm for 15 min, the butanol phase was assayed spectrophotometrically at 532 nm. Tetramethoxypropane (in amounts of 0, 0.1, 0.2, 0.4, 0.8, 1.0 nmole) served as external standard. MDA levels in myocardium were expressed in μmol/g tissue.

Row | Compound | effect on SBP ([1]; higher infusion speed) | elevation of SBP ([1]; low infusion speed) | duration of hypotensive effect ([2]; 1 mg/kg i.v.) [h] | onset of hypotensive effect after injection ([2]; 1 mg/kg i.v.) [min] | duration of action ([2]; comparison with β1-AS-ODN) | bradycardia ([2]; rat, in vivo) | increase of mRNA for β1-AR in myocardium [3] | ischemia-reperfusion-mediated increase in β1-AR protein expression [4] | basal (resting) HR ([1]; 1 mg/kg, control 365±8) [bpm] | time until inotropic and chronotropic effects of dobutamine returned to control levels ([1]; after 1 mg/kg administration) [h] | increase in CPP and LVEDP induced by ischemia-reperfusion [5] | ischemia-reperfusion-induced change in LVSP and dLVP [5] | increase in MDA levels in the myocardium [6]
1 | CC(CCc1ccc(O)cc1)NCCc1ccc(O)c(O)c1 (stereo not shown) [Dobutamine, dobutamine] | reduced SBP; also recorded: reduced SPB | 5 to 8 mm Hg and 5-8 mm Hg |  |  |  |  |  |  |  |  |  |  | 
2 | CC(C)NCC(O)COc1ccc(CC(N)=O)cc1 (stereo not shown) [atenolol, reference compound] |  |  | 10 | 20 | less than 1 day | appreciable bradycardia | not significantly affected | no effect | 295±12 | ≤ 24 | reduced the increase | modestly attenuated | attenuated the increase
